Row | Structure (SMILES) | melting point [°C]
1 | C#CCOc1ccc2nc(C(=O)c3ccc(N(C)C)cc3)nc(-c3ccc(C(C)C)cc3)c2c1 [Example 20, (4-Dimethylamino-phenyl)-[4-(4-isopropyl-phenyl)-6-propargyloxy-quinazolin-2-yl]-methanone] | 148 to 151
2 | C#CCOc1ccc2nc(C(=O)c3ccc(C(=O)OC)cc3)nc(-c3ccc(C(C)C)cc3)c2c1 [Example 22, 4-[4-(4-Isopropyl-phenyl)-6-propargyloxy-quinazoline-2-carbonyl]-benzoic acid methyl ester] | 108 to 110
3 | C#CCOc1ccc2nc(C(=O)c3ccc(O)cc3)nc(-c3ccc(C(C)C)cc3)c2c1 [Example 30, (4-Hydroxy)-[4-(4-isopropyl-phenyl)-6-propargyloxy-quinazolin-2-yl]-methanone] | 185 to 187
4 | C#CCOc1ccc2nc(C(=O)c3ccc(C)cc3)nc(-c3ccc(C(C)C)cc3)c2c1 [Example 14, (4-Methyl-phenyl)-[4-(4-isopropyl-phenyl)-6-propargyloxy-quinazolin-2-yl]-methanone] | 130 to 132
5 | C#CCOc1ccc2nc(C(=O)c3ccc(OCCCC)cc3)nc(-c3ccc(C(C)C)cc3)c2c1 [Example 31, (4-Butyloxy)-[4-(4-isopropyl-phenyl)-6-propargyloxy-quinazolin-2-yl]-methanone] | 91 to 93
6 | C#CCOc1ccc2nc(C(=O)c3ccc(Cl)cc3)nc(-c3ccc(C(C)C)cc3)c2c1 [Example 9, (4-Chloro-phenyl)-[4-(4-isopropyl-phenyl)-6-propargyloxy-quinazolin-2-yl]-methanone] | 108 to 110
7 | C#CCOc1ccc2nc(C(=O)c3ccoc3)nc(-c3ccc(C(C)(C)C)cc3)c2c1 [Example 33, Furan-3-yl-[4-(4-tert.butyl-phenyl)-6-propargyloxy-quinazolin-2-yl]-methanone] | 170
8 | C#CCOc1ccc2nc(C(=O)c3cccc(F)c3)nc(-c3ccc(C(C)C)cc3)c2c1 [Example 7, (3-Fluoro-phenyl)-[4-(4-isopropyl-phenyl)-6-propargyloxy-quinazolin-2-yl]-methanone] | 118 to 120
9 | C#CCOc1ccc2nc(C(=O)c3ccc(OC(C)(C)C)cc3)nc(-c3ccc(C(C)C)cc3)c2c1 [Example 29, (4-tert.Butyloxy-phenyl)-[4-(4-isopropyl-phenyl)-6-propargyloxy-quinazolin-2-yl]-methanone] | 130 to 132
10 | C#CCOc1ccc2nc(C(=O)c3ccc(OCC)cc3)nc(-c3ccc(C(C)C)cc3)c2c1 [Example 21, (4-Ethoxy-phenyl)-[4-(4-isopropyl-phenyl)-6-propargyloxy-quinazolin-2-yl]-methanone] | 117 to 119
11 | C#CCOc1ccc2nc(C(=O)c3ccc(C(C)C)cc3)nc(-c3ccc(C(C)C)cc3)c2c1 [Example 15, (4-Isopropyl-phenyl)-[4-(4-isopropyl-phenyl)-6-propargyloxy-quinazolin-2-yl]-methanone] | 132 to 134
12 | C#CCOc1ccc2nc(C(=O)c3sccc3C)nc(-c3ccc(C(C)C)cc3)c2c1 [Example 36] | 130 to 132
13 | C#CCOc1ccc2nc(C(=O)c3ccc(F)cc3)nc(-c3ccc(C(C)(C)C)cc3)c2c1 [Example 10, (4-Fluoro-phenyl)-[4-(4-tert.butyl-phenyl)-6-propargyloxy-quinazolin-2-yl]-methanone] | 105 to 107
14 | C#CCOc1ccc2nc(C(=O)c3cccs3)nc(-c3ccc(C(C)C)cc3)c2c1 [Example 35, Thiophen-2-yl-[4-(4-isopropyl-phenyl)-6-propargyloxy-quinazolin-2-yl]-methanone] | 113 to 117
15 | C#CCOc1ccc2nc(C(=O)c3ccc(C(C)(C)C)cc3)nc(-c3ccc(C(C)C)cc3)c2c1 [Example 1, (4-tert-Butyl-phenyl)-[4-(4-isopropyl-phenyl)-6-propargyloxy-quinazolin-2-yl]-methanone] | 166 to 168
16 | C#CCOc1ccc2nc(C(=O)c3ccc(CC)cc3)nc(-c3ccc(C(C)C)cc3)c2c1 [Example 16, (4-Ethyl-phenyl)-[4-(4-isopropyl-phenyl)-6-propargyloxy-quinazolin-2-yl]-methanone] | 108 to 111
17 | C#CCOc1ccc2nc(C(=O)c3ccc(OC)cc3)nc(-c3ccc(C4CC4)cc3)c2c1 [Example 27] | 147 to 149
18 | C#CCOc1ccc2nc(C(=O)c3ccc(C(=O)OCC)cc3)nc(-c3ccc(C(C)C)cc3)c2c1 [Example 25, 4-[4-(4-Isopropyl-phenyl)-6-propargyloxy-quinazoline-2-carbonyl]-benzoic acid ethyl ester] | 132 to 134
19 | C#CCOc1ccc2nc(C(=O)c3ccco3)nc(-c3ccc(C(C)C)cc3)c2c1 [Example 32, Furan-2-yl-[4-(4-isopropyl-phenyl)-6-propargyloxy-quinazolin-2-yl]-methanone] | 150 to 151
20 | C#CCOc1ccc2nc(C(=O)c3ccc(F)cc3)nc(-c3ccc(C(C)C)cc3)c2c1 [Example 6, (4-Fluoro-phenyl)-[4-(4-isopropyl-phenyl)-6-propargyloxy-quinazolin-2-yl]-methanone] | 124 to 126
21 | C#CCOc1ccc2nc(C(=O)c3cccn3C)nc(-c3ccc(C(C)C)cc3)c2c1 [Example 39, (1-Methyl-1H-pyrrol)-2-yl-[4-(4-isopropyl-phenyl)-6-propargyloxy-quinazolin-2-yl]-methanone] | 126 to 128
22 | C#CCOc1ccc2nc(C(=O)c3ccc(N(C)C)cc3)nc(-c3ccc(C(C)(C)C)cc3)c2c1 [Example 23, (4-Dimethylamino-phenyl)-[4-(4-tert.butyl-phenyl)-6-propargyloxy-quinazolin-2-yl]-methanone] | 150 to 152

Other lines, results leading:

Row | melting point [°C] | Structure (SMILES)
23 | 156 to 158 | C#CCOc1ccc2nc(C(=O)c3cccc(F)c3)nc(-c3ccc(C(C)(C)C)cc3)c2c1 [Example 11, (3-Fluoro-phenyl)-[4-(4-tert.butyl-phenyl)-6-propargyloxy-quinazolin-2-yl]-methanone]
24 | 161 to 164 | C#CCOc1ccc2nc(C(=O)c3ccc(SC)cc3)nc(-c3ccc(C(C)C)cc3)c2c1 [Example 18, (4-Methylthio-phenyl)-[4-(4-isopropyl-phenyl)-6-propargyloxy-quinazolin-2-yl]-methanone]
25 | 97 to 100 | C#CCOc1ccc2nc(C(=O)c3ccc(Br)cc3)nc(-c3ccc(C(C)C)cc3)c2c1 [Example 13, (4-Bromo-phenyl)-[4-(4-isopropyl-phenyl)-6-propargyloxy-quinazolin-2-yl]-methanone]
26 | 133 | C#CCOc1ccc2nc(C(=O)c3ccoc3)nc(-c3ccc(C(C)C)cc3)c2c1 [Example 34, Furan-3-yl-[4-(4-isopropyl-phenyl)-6-propargyloxy-quinazolin-2-yl]-methanone]
27 | 140 to 142 | C#CCOc1ccc2nc(C(=O)c3ccc(CCC)cc3)nc(-c3ccc(C(C)C)cc3)c2c1 [Example 16a, (4-Propyl-phenyl)-[4-(4-isopropyl-phenyl)-6-propargyloxy-quinazolin-2-yl]-methanone]
28 | 150 to 152 | C#CCOc1ccc2nc(C(=O)c3ccc(OC)cc3)nc(-c3ccc(C(C)(C)C)cc3)c2c1 [Example 26, (4-Methoxy-phenyl)-[4-(4-tert.butyl-phenyl)-6-propargyloxy-quinazolin-2-yl]-methanone]
29 | 128 to 130 | C#CCOc1ccc2nc(C(=O)c3cccc(Cl)c3)nc(-c3ccc(C(C)C)cc3)c2c1 [Example 8, (3-Chloro-phenyl)-[4-(4-isopropyl-phenyl)-6-propargyloxy-quinazolin-2-yl]-methanone]
30 | 132 | C#CCOc1ccc2nc(C(=O)c3cccc(Br)c3)nc(-c3ccc(C(C)C)cc3)c2c1 [Example 12, (3-Bromo-phenyl)-[4-(4-isopropyl-phenyl)-6-propargyloxy-quinazolin-2-yl]-methanone]
31 | 167 to 169 | C#CCOc1ccc2nc(C(=O)c3cc4ccccc4s3)nc(-c3ccc(C(C)C)cc3)c2c1 [Example 37, Benz[b]thiophen-2-yl-[4-(4-isopropyl-phenyl)-6-propargyloxy-quinazolin-2-yl]-methanone]
32 | 181 to 184 | C#CCOc1ccc2nc(C(=O)c3ccc(S(C)(=O)=O)cc3)nc(-c3ccc(C(C)C)cc3)c2c1 [Example 19, (4-Methansulfonyl-phenyl)-[4-(4-isopropyl-phenyl)-6-propargyloxy-quinazolin-2-yl]-methanone]
33 | 169 to 172 | C#CCOc1ccc2nc(C(=O)c3ccc(N(C)C)cc3)nc(-c3ccc(C4CC4)cc3)c2c1 [Example 24, (4-Dimethylamino-phenyl)-[4-(4-cyclopropyl-phenyl)-6-propargyloxy-quinazolin-2-yl]-methanone]
34 | 148 | C#CCOc1ccc2nc(C(=O)c3ccc(OC)c(OCC)c3)nc(-c3ccc(C(C)C)cc3)c2c1 [Example 28, (3-Ethoxy-4-methoxy-phenyl)-[4-(4-isopropyl-phenyl)-6-propargyloxy-quinazolin-2-yl]-methanone]
35 | 130 to 132 | C#CCOc1ccc2nc(C(=O)c3ccc(C#N)cc3)nc(-c3ccc(C(C)C)cc3)c2c1 [Example 17, (4-Cyano-phenyl)-[4-(4-isopropyl-phenyl)-6-propargyloxy-quinazolin-2-yl]-methanone]
